Like-named read-outs stand apart in the source and are kept apart here.
Columns and labels:
[1] = Plasma, liver and brain PK after i.p. dosing with M14; assay type: in vivo; conditions: i.p. M14 135 mg/kg; for half-life: read-out: Terminal T1/2
Procedure: Concentration-time data were analyzed by non-compartmental analysis using Phoenix WinNonlin (ver 6.4, Build 6.4.0768 Pharsight, United States); all AUC values were extrapolated to infinity using the linear trapezoidal rule. A compartmental model for plasma PK after dosing with SN30000 or M14 was fitted using Phoenix NLME v1.3 with random effects on the metabolite volumes of distribution, and temperature effects based on the observed body temperature at the last measurement time. Temperature effects were added or removed until there was no significant change in the log likelihood. Model fits were further assessed by visual inspection of the residuals and predicted PK.

[2] = i.p. SN30000 186 mg/kg
Procedure: M18 was quantified by absorbance detection with reference to an external standard calibration curve.
Concentration-time data were analyzed by non-compartmental analysis using Phoenix WinNonlin (ver 6.4, Build 6.4.0768 Pharsight, United States); all AUC values were extrapolated to infinity using the linear trapezoidal rule.
SN30000, M14 and M13 were quantified by LC-MS/MS using stable isotope internal standards, while M18 was quantified by absorbance detection using external standard calibration curves.

[3] = Stability in mouse plasma (QC samples); assay type: physicochemical
Source text: using octa-deuterated internal standards of SN30000, M13 and M14 synthesised as previously reported (Wang et al., 2012). Intra- and inter-day precision (expressed as relative standard deviation (RSD) and accuracy (expressed as percentage of the nominal value) were deter mined by analy sis of replicates (n=6) of low and high quality control (QC) samples on three different days. The lower limit of quantitation (LLOQ) was defined as the lowest concentration providing RSD and accuracy < 20%. Recovery from plasma and liver ho mogenates was tested at the three QC levels. The recoveries were evaluated by comparing extracted samples with blank extracted solutions spiked with analytes of the same amount.
Matrix effects, defined as the change in response due to the presence of other substances in the samples, were evaluated by comparing the analytes diluted into the blank plasma or liver extracted solution with that of the same stock solutions diluted in water. Three different concentration levels (low, medium and high QC) were evaluated by analysing three samples at each level. Accuracy , precision, recovery and matrix effects were all acceptable over the concentration ranges evaluated for plas ma (Supplementary Table 1) and for liver homogenates (Supplementary Table 2).
Stability of the analytes in mouse plasma (Supplementary Table 3) or liver homogenate (Supplementary Table 4) was confirmed during holding of QC samples on ice for up to 2 h under nor mal laboratory lighting, although there was a trend towards loss of SN30000 in plasma samples held in clear microcentrifuge tubes which may reflect the known photosensitivity of the compound (Gu et al., 2014). This loss was reduced by use of red microcentrifuge tubes, and eliminated by black tubes. Stability in both matrices was also confir med for one month storage at -80°C and for three freeze-thaw cycles, while MeOH-deproteinised samples w ere stable for 12 h at 4°C in the autosampler (Supplementary Tables

[4] = HT29 tumour, tumour-bearing mice
[5] = liver, HT29 tumour-bearing mice
[6] = plasma deproteinised in 3 vol MeOH, 12 h autosampler at 4°C, nominal SN30000 0.5, M14 0.25, M13 0.1 µM
[7] = plasma deproteinised in 3 vol MeOH, 12 h autosampler at 4°C, nominal SN30000 5, M14 2.5, M13 1 µM
[8] = plasma deproteinised in 3 vol MeOH, 12 h autosampler at 4°C, nominal SN30000 50, M14 25, M13 10 µM
[9] = plasma, 1 month at -80°C, nominal SN30000 0.5, M14 0.25, M13 0.1 µM
[10] = plasma, 1 month at -80°C, nominal SN30000 5, M14 2.5, M13 1 µM
[11] = plasma, 1 month at -80°C, nominal SN30000 50, M14 25, M13 10 µM
[12] = plasma, 1 h on ice, black vial, nominal SN30000 0.5, M14 0.25, M13 0.1 µM
[13] = plasma, 1 h on ice, black vial, nominal SN30000 5, M14 2.5, M13 1 µM
[14] = plasma, 1 h on ice, black vial, nominal SN30000 50, M14 25, M13 10 µM
[15] = plasma, 1 h on ice, clear vial, nominal SN30000 0.5, M14 0.25, M13 0.1 µM
[16] = plasma, 1 h on ice, clear vial, nominal SN30000 5, M14 2.5, M13 1 µM
[17] = plasma, 1 h on ice, clear vial, nominal SN30000 50, M14 25, M13 10 µM
[18] = plasma, 1 h on ice, red vial, nominal SN30000 0.5, M14 0.25, M13 0.1 µM
[19] = plasma, 1 h on ice, red vial, nominal SN30000 5, M14 2.5, M13 1 µM
[20] = plasma, 1 h on ice, red vial, nominal SN30000 50, M14 25, M13 10 µM
[21] = plasma, 2 h on ice, black vial, nominal SN30000 0.5, M14 0.25, M13 0.1 µM
[22] = plasma, 2 h on ice, black vial, nominal SN30000 5, M14 2.5, M13 1 µM
[23] = plasma, 2 h on ice, black vial, nominal SN30000 50, M14 25, M13 10 µM
[24] = plasma, 2 h on ice, clear vial, nominal SN30000 0.5, M14 0.25, M13 0.1 µM
[25] = plasma, 2 h on ice, clear vial, nominal SN30000 5, M14 2.5, M13 1 µM
[26] = plasma, 2 h on ice, clear vial, nominal SN30000 50, M14 25, M13 10 µM
[27] = plasma, 2 h on ice, red vial, nominal SN30000 0.5, M14 0.25, M13 0.1 µM
[28] = plasma, 2 h on ice, red vial, nominal SN30000 5, M14 2.5, M13 1 µM
[29] = plasma, 2 h on ice, red vial, nominal SN30000 50, M14 25, M13 10 µM
[30] = plasma, three freeze-thaw cycles, nominal SN30000 0.5, M14 0.25, M13 0.1 µM
[31] = plasma, three freeze-thaw cycles, nominal SN30000 5, M14 2.5, M13 1 µM
[32] = plasma, three freeze-thaw cycles, nominal SN30000 50, M14 25, M13 10 µM

For `c1c2c(cc3nc(CCCN4CCOCC4)nnc13)CCC2` [M13], the half-life ([1]; NIH-III nude, mouse, ip, brain) was 26 min, the half-life ([1]; NIH-III nude, mouse, ip, liver) was 32.7 min and the Cmax ([1]; NIH-III nude, mouse, ip, plasma, read-out: Cmax) was 4 ± 0.63 µM. For the same compound, the half-life ([1]; NIH-III nude, mouse, ip, plasma) was 40 min, the AUC ([1]; brain) was 5.3 µmol·h/kg and the Cmax ([1]; brain) was 11.0 ± 1.6 µmol/kg. For the same compound, the AUC ([1]; liver) was 14.9 µmol·h/kg, the Cmax ([1]; liver) was 34.1 ± 5.4 µmol/kg and the AUC ([1]; plasma) was 1.79 µmol·h/kg. For the same compound, the “Concentrations in brain compared with plasma” value [2] was “higher in brain than plasma”, the “AUC (extrapolated to infinity)” value [2, 4] was 57.7 µmol·h/kg and the Cmax [2, 4] was 15.5 ± 2.2 µmol/kg. The “AUC (extrapolated to infinity)” value ([2]; brain, non-tumour-bearing mice) was 46.7 µmol·h/kg, the Cmax ([2]; brain, non-tumour-bearing mice) was 52.8 ± 4.1 µmol/kg and the “AUC (extrapolated to infinity)” value [2, 5] was 158 µmol·h/kg. For the same compound, the Cmax [2, 5] was 155.4 ± 8.4 µmol/kg, the “AUC (extrapolated to infinity)” value ([2]; liver, non-tumour-bearing mice) was 158 µmol·h/kg and the Cmax ([2]; liver, non-tumour-bearing mice) was 178.7 ± 8.1 µmol/kg. The “AUC (extrapolated to infinity)” value ([2]; plasma, HT29 tumour-bearing mice) was 14. 9 µmol. hr/kg, the “AUC (extrapolated to infinity)” value ([2]; plasma, non-tumour-bearing mice) was 13.0 µmol·h/kg and the Bias [3, 6] was -3.42%. For the same compound, the Measured conc [3, 6] was 0.10 µM, the Bias [3, 7] was -1.26% and the Measured conc [3, 7] was 0.99 µM. It also gave a Bias [3, 8] of 5.41%, a Measured conc [3, 8] of 10.54 µM and a Bias [3, 9] of 1.68%. The Measured conc [3, 9] was 0.10 µM, the Bias [3, 10] was 1.94% and the Measured conc [3, 10] was 1.00 µM. It also gave a Bias [3, 11] of 1.85%, a Measured conc [3, 11] of 11.05 µM and a Bias [3, 12] of -7.00%. The Measured conc [3, 12] was 0.09 µM, the Bias [3, 13] was -7.17% and the Measured conc [3, 13] was 0.93 µM. For the same compound, the Bias [3, 14] was 5.90%, the Measured conc [3, 14] was 10.59 µM and the Bias [3, 15] was -7.05%. For the same compound, the Measured conc [3, 15] was 0.09 µM, the Bias [3, 16] was -3.76% and the Measured conc [3, 16] was 0.96 µM. It also gave a Bias [3, 17] of -3.61%, a Measured conc [3, 17] of 9.64 µM and a Bias [3, 18] of -5.72%. It also gave a Measured conc [3, 18] of 0.09 µM, a Bias [3, 19] of -5.29% and a Measured conc [3, 19] of 0.95 µM. The Bias [3, 20] was 0.10%, the Measured conc [3, 20] was 10.01 µM and the Bias [3, 21] was -0.52%. The Measured conc [3, 21] was 0.10 µM, the Bias [3, 22] was 1.13% and the Measured conc [3, 22] was 1.01 µM. The Bias [3, 23] was 0.55%, the Measured conc [3, 23] was 10.06 µM and the Bias [3, 24] was -9.85%. The Measured conc [3, 24] was 0.09 µM, the Bias [3, 25] was -4.92% and the Measured conc [3, 25] was 0.95 µM. The Bias [3, 26] was -8.95%, the Measured conc [3, 26] was 9.10 µM and the Bias [3, 27] was -7.29%. It also gave a Measured conc [3, 27] of 0.09 µM, a Bias [3, 28] of -4.71% and a Measured conc [3, 28] of 0.95 µM. For the same compound, the Bias [3, 29] was -3.91%, the Measured conc [3, 29] was 9.61 µM and the Bias [3, 30] was -4.05%. The Measured conc [3, 30] was 0.10 µM, the Bias [3, 31] was -2.61% and the Measured conc [3, 31] was 0.97 µM. For the same compound, the Bias [3, 32] was 4.39% and the Measured conc [3, 32] was 10.44 µM.

Source: paper PMC5554537 (Frontiers in Pharmacology, 2017)
